Reference: US20020119979A1, “Acyclic compounds and methods for treating multidrug resistance” (priority 2000, published 2002)

Tested on: NIH-MDR1-G185 cells
Assay: Fluorescent substrate (BODIPY-FL Taxol) accumulation assay
Format: cell-based
Details: BODIPY-FL taxol 500 nM, MDR modulator 10 micromolar, 40 min at 37° C.; fluorescence in NIH-MDR1-G185 cells in presence / absence of modulator
Protocol: Fluorescent Substrate Accumulation Assay
NIH-MDR1-GI 85 cells (obtained from M. Gottesman, NI1H) were harvested and resuspended in RPMI-1640 containing L-glutamine, 10% Cosmic Calf Serum and penicillin-streptomycin. Cell suspension aliquots of 175 microliters (1×10^5 cells) were added to individual wells of a 96 well microtiter plate and preincubated for 15 min at 37° C. with 20 microliters MDR modulator diluted in cell culture media to give a final concentration of 10 micromolar. Control wells received no modulating agent. BODIPY-FL Taxol (Molecular Probes, Eugene, Oreg.) was added to each well in 10 microliter aliquots to give a final concentration of 500 nM and cells were incubated for 40 min at 37° C. Cells were centrifuged at 100× g for 5 min at 4° C. and the cell pellet washed with 200 microliters cold PBS to remove fluorescent medium from wells. Cells were centrifuged once more, media removed, and cells resuspended in 200 microliters cold PBS. Fluorescence accumulation was measured in a fluorescence plate reader fitted with an excitation filter of 485 nm and an emission filter of 538 nm. BODIPY-FL taxol accumulation in the cells was calculated as follows:
Accumulation Index=(fluorescence in NIH-MDR1-G185 cells in the presence of modulator)/(fluorescence in NIH-MDR1-G185 cells in absence of modulator) […]

O=C(CCCNC[C@@H](O)COc1cccc2ncccc12)NC(CCCc1ccccc1)CCCc1ccccc1 [Example 25, N-{1-[2-(R)-Hydroxy-3-(quinolin-5-yloxy)-propyl]}-4-aminobutyric acid [4-phenyl-1-(3-phenyl-propyl)-butyl]-amide]
Accumulation Index: 10
